Test results published in patent publication US8334255B2, “Peptide and treatment for HIV-1 infection” (Thomas Jefferson University, priority 2006, dated 2012).
Primed or numbered codes have the meaning given here. Ends that are not written are not given here. FITC′ = not defined here

Assays:
[1] = system: H9 and MT-2 cells; assay: Cellular uptake and intracellular localization of FITC-tagged peptide by fluorescence microscopy; type: cell-based
Experimental: The peptide of amino acid sequence SEQ ID NO:2 was synthesized with a C-terminal fluoroscein isothiocyanate (FTIC) tag. The FITC tag enables fluorescence microscopy of living cells in order to evaluate cellular uptake and intracellular localization of the peptide. Cultures of H9 and MT-2 cells were grown in media as recommended by the American Tissue Culture Collection (ATCC) and each culture was treated once in culture with of the FTIC-tagged peptide of the amino acid sequence SEQ ID NO:2. The cells were then photographed in the culture dish with an inverted fluorescence microscopy at various time points. […] The intracellular distribution was both punctate and diffuse in the cytoplasm but little or no FTIC-tagged peptide was observed within the nuclei of cells. This distribution was sustained for 24-48 hours and diminished by over 50% by 72 hours post-treatment.
To highlight the position of the nucleus, H9 and MT-2 cells treated with the FTIC-tagged peptide of the amino acid sequence SEQ ID NO:2 as described above, fixed with 2% paraformaldehyde, permeabilized with 0.4% Triton X-100 and stained with the DNA selective stain 4′,6-diamidino-2-phenylindole (DAPI).

[2] = system: HIV-1IIIB virus; assay: Low multiplicity of infection acute infection assay in MT-2 cells, reverse transcriptase assay; conditions: for delay of the onset of virus production: MT-2 cells, RT assay
[3] = system: HIV-1NL4-3 Viruses; assay: Viral infectivity assay in peripheral blood mononuclear cells, p24 Gag ELISA; type: cell-based; conditions: PBMCs infected with HIV-1NL4-3, MOI 0.1; p24 antigen level by ELISA
Experimental: Various truncated analogues of the peptide of amino acid sequence SEQ ID NO:36 were prepared to determine the minimal peptide necessary to inhibit viral infectivity. The compounds were tested in a viral infectivity assay in which PBMCs were infected with HIV-1NLA-3 viruses (MOI: 0.1). The amounts of virus produced were monitored by detecting the HIV-1 p24 antigen. level in the cell culture using p24 Gag ELISA (Zeptometrics).

[4] = Physicochemical properties of the peptide (isoelectric point, solubility)
[5] = system: HIV-1NL4-3 Viruses; assay: Viral infectivity assay in human T lymphoblastoid H9 cell line, p24 antigen ELISA; type: cell-based; conditions: H9 cells, MOI 0.01, peptide 50 μM, compared to untreated cells or control peptide
Experimental: A viral infectivity assay was performed in the presence or absence of the peptides of amino acid sequence SEQ ID NO:2 and SEQ ID NO:36, and the control peptide of amino acid sequence SEQ ID NO:35 using HIV-1NL4-3 viruses in H9 cells and assaying HIV-1 p24 antigen. The procedure was performed essentially as described by B. Yang, et al., J. Bio. Chem., 2003; 278(8), 6596-602, which describes the method as follows. H9 cells (1×10^6) are mixed with HIV-1NL4-3 viruses at a multiplicity of infection of 0.01. After incubation at 37° C. for 5 hours, the excess viruses were removed, and the cells are cultured in the presence of RPMI 1640 medium plus […] fetal bovine serum with or without the peptides at a concentration of 50 μM. Every 3-4 days the supernatants are harvested and refreshed. The effects of the peptides on viral infectivity are monitored by detecting the HIV-1 p24 antigen level in the cell culture supernatant via ELISA.

[6] = living H9 and MT-2 cells, single treatment

## FTIC-tagged peptide of the amino acid sequence SEQ ID NO:2: peptide of amino acid sequence SEQ ID NO:2 synthesized with a C-terminal fluoroscein isothiocyanate (FTIC) tag (YGRKKRRQRRRGQGGSPLPRSV-{FITC′})
[1]; H9 and MT-2 cells, 24 h after a single treatment
  intracellular localization (fixed cells, DAPI nuclear stain): localized in the cytoplasm but was not present in the nucleus
[1]; by 72 hours post-treatment
  diminution of intracellular peptide distribution: over 50%
[1]; [6]
  time after which fluorescence within cells was detected: 5 ninutes
  time for which the intracellular distribution was sustained: 24 to 48 h
  time until intracellular localization was apparent in all cells: ≤ 30 min
[1]; living H9 and MT-2 cells, distribution punctate and diffuse in the cytoplasm
  peptide observed within the nuclei of cells: little or no

## YGRKKRRQRRRGDLGEQHFKGLVL [SEQ ID NO:35]
[2]; MOI 0.003, peptide 50 μM
  effect on virus production (in words): somewhat enhance virus production
[2]; MOI 0.01, peptide 50 μM
  effect on virus production (in words): did not inhibit virus production
[2]; MOI 0.03, peptide 50 μM
  effect on virus production (in words): did not inhibit virus production
[2]; MOI 0.1, peptide 50 μM
  effect on virus production (in words): did not inhibit virus production

## YGRKKRRQRRRGGGSPLPRSV [SEQ ID NO: 74]
[3]
  Activity (inhibiting HIV-1NL4-3 viruses in viral infectivity assay): Inactive

## YGRKKRRQRRRGQGGSPLPRSV [SEQ ID NO:2]
[4]
  isoelectric point (pI): 12.39
  solubility: ~1000 µg/mL

## YGRKKRRQRRRGSNQGGSPLPRS [SEQ ID NO: 75]
[3]
  Activity (inhibiting HIV-1NL4-3 viruses in viral infectivity assay): Inactive

## YGRKKRRQRRRGSNQGGSPLPRSV [SEQ ID NO:36]
[5]
  effect on viral replication (HIV-1 p24 antigen in supernatant): inhibited viral replication
[2]; MOI 0.003, peptide 50 μM
  effect on virus production (in words): did not appear to have any effect upon virus production
[2]; MOI 0.01, peptide 50 μM
  delay of the onset of virus production: 3 to 4 days
[2]; MOI 0.03, peptide 50 μM
  delay of the onset of virus production: 2 to 3 days
[2]; MOI 0.1, peptide 50 μM
  delay of the onset of virus production: 4 to 5 days
